{"source": "patent US20260273028A1", "about": "“PEROXIDASE COMPOSITIONS CONTAINING IMPROVED ENHANCING AGENTS” (FLEN HEALTH PHARMA NV, priority 2022, published 2026)", "system": "Candida albicans ATCC®10231™", "assay": "MIC determination, broth microdilution, GOX+LPO with potentiator candidate", "format": "cell-based", "conditions": "C. albicans; enhancer 0.01%", "data": [{"smiles": "CC[C@H](C)[C@H](N)C(=O)O", "note": "[Isoleucine, isoleucine]", "values": [{"measurement": "MIC: GOX+LPO enzyme solution needed to completely inhibit growth", "value": "0.0000391 % (v/v)"}, {"measurement": "increase in MIC compared to reference", "value": 4, "unit": "×"}, {"measurement": "increase in MIC compared to the enhancing molecule guaiacol", "value": 2, "unit": "×"}]}]}
